Data: PubChem BioAssay (NCI)
Where “and” joins values, the source holds several entries; their conditions need not be identical. Equal entries are not always repeated.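 96-well plates; 48 h exposure; 5 concentrations. Endpoints by linear interpolation between flanking doses. Not reached: highest tested concentration assigned. GI50 is the concentration that inhibits growth by half. TGI is the concentration that stops growth completely.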

Key:
Assay in all cases: NCI anticancer screen, dose series, 48 h
SK-MEL-5 melanoma = tested on: SK-MEL-5 melanoma
SNB-19 CNS = tested on: SNB-19 CNS
BT-549 breast = tested on: BT-549 breast
NCI-H460 lung = tested on: NCI-H460 lung
TK-10 renal = tested on: TK-10 renal
NCI-H23 lung = tested on: NCI-H23 lung
HCT-116 colon = tested on: HCT-116 colon
CAKI-1 renal = tested on: CAKI-1 renal
M14 melanoma = tested on: M14 melanoma
HCT-15 colon = tested on: HCT-15 colon
SF-295 CNS = tested on: SF-295 CNS
SNB-75 CNS = tested on: SNB-75 CNS
CCRF-CEM leukemia = tested on: CCRF-CEM leukemia
SW-620 colon = tested on: SW-620 colon
HS 578T breast = tested on: HS 578T breast
A498 renal = tested on: A498 renal
UACC-62 melanoma = tested on: UACC-62 melanoma
T-47D breast = tested on: T-47D breast
MDA-MB-231 breast = tested on: MDA-MB-231 breast
MDA-MB-435 = tested on: MDA-MB-435
NCI-H522 lung = tested on: NCI-H522 lung
SF-268 CNS = tested on: SF-268 CNS
UACC-257 melanoma = tested on: UACC-257 melanoma
HL-60(TB) leukemia = tested on: HL-60(TB) leukemia
MALME-3M melanoma = tested on: MALME-3M melanoma
MCF7 breast = tested on: MCF7 breast
KM12 colon = tested on: KM12 colon
RPMI-8226 leukemia = tested on: RPMI-8226 leukemia
LOX IMVI melanoma = tested on: LOX IMVI melanoma
SK-MEL-2 melanoma = tested on: SK-MEL-2 melanoma
HOP-92 NSCLC = tested on: HOP-92 NSCLC
K-562 leukemia = tested on: K-562 leukemia
UO-31 renal = tested on: UO-31 renal
NCI-H226 lung = tested on: NCI-H226 lung
786-0 renal = tested on: 786-0 renal
SF-539 CNS = tested on: SF-539 CNS
NCI/ADR-RES ovarian = tested on: NCI/ADR-RES ovarian
IGROV1 ovarian = tested on: IGROV1 ovarian
SK-MEL-28 melanoma = tested on: SK-MEL-28 melanoma
U251 CNS = tested on: U251 CNS
OVCAR-3 ovarian = tested on: OVCAR-3 ovarian
HT29 colon = tested on: HT29 colon
SN12C renal = tested on: SN12C renal
HCC-2998 colon = tested on: HCC-2998 colon
DU-145 prostate = tested on: DU-145 prostate
EKVX NSCLC = tested on: EKVX NSCLC
HOP-62 NSCLC = tested on: HOP-62 NSCLC
MOLT-4 leukemia = tested on: MOLT-4 leukemia
OVCAR-8 ovarian = tested on: OVCAR-8 ovarian
COLO 205 colon = tested on: COLO 205 colon
SK-OV-3 ovarian = tested on: SK-OV-3 ovarian
ACHN renal = tested on: ACHN renal
PC-3 prostate = tested on: PC-3 prostate
OVCAR-5 ovarian = tested on: OVCAR-5 ovarian
RXF 393 renal = tested on: RXF 393 renal
OVCAR-4 ovarian = tested on: OVCAR-4 ovarian
A549 NSCLC = tested on: A549 NSCLC

SMILES: O=P([O-])(O)OP(=O)([O-])O.[NH-][C@@H]1CCCC[C@H]1[NH-].[Pt+4]
- TGI (SK-MEL-5 melanoma): > 100 µM and 14.9 µM
- GI50 (SNB-19 CNS): 47.9 µM and 14.9 µM
- TGI (SNB-19 CNS): > 100 µM
- GI50 (BT-549 breast): > 100 µM and 30.5 µM
- TGI (BT-549 breast): > 100 µM
- GI50 (NCI-H460 lung): 4.4 µM and 2.33 µM
- TGI (NCI-H460 lung): > 100 µM and 19.5 µM
- GI50 (TK-10 renal): 52.4 µM
- TGI (TK-10 renal): > 100 µM
- GI50 (NCI-H23 lung): 18.4 µM and 12.3 µM
- TGI (NCI-H23 lung): > 100 µM and 91.1 µM
- GI50 (HCT-116 colon): 5.01 µM and 2.61 µM
- TGI (HCT-116 colon): > 100 µM
- GI50 (CAKI-1 renal): 6.41 µM and 5.25 µM
- TGI (CAKI-1 renal): > 100 µM and 41.7 µM
- GI50 (M14 melanoma): 38.9 µM and 14.8 µM
- TGI (M14 melanoma): > 100 µM
- GI50 (HCT-15 colon): 11.2 µM and 8.21 µM
- TGI (HCT-15 colon): > 100 µM
- GI50 (SF-295 CNS): 26.2 µM and 14.5 µM
- TGI (SF-295 CNS): > 100 µM
- GI50 (SNB-75 CNS): > 100 µM and 34 µM
- TGI (SNB-75 CNS): > 100 µM
- GI50 (CCRF-CEM leukemia): 13 µM and 6.59 µM
- TGI (CCRF-CEM leukemia): > 100 µM
- GI50 (SW-620 colon): 4850 nM and 659 nM
- TGI (SW-620 colon): > 100 µM
- GI50 (HS 578T breast): > 100 µM and 56.5 µM
- TGI (HS 578T breast): > 100 µM
- GI50 (A498 renal): > 100 µM and 18.3 µM
- TGI (A498 renal): > 100 µM
- GI50 (UACC-62 melanoma): 9.62 µM and 4.21 µM
- TGI (UACC-62 melanoma): > 100 µM and 33.5 µM
- GI50 (T-47D breast): 18.4 µM and 4.82 µM
- TGI (T-47D breast): > 100 µM and 39.5 µM
- GI50 (MDA-MB-231 breast): > 100 µM
- TGI (MDA-MB-231 breast): > 100 µM
- GI50 (MDA-MB-435): 11.8 µM and 4.04 µM
- TGI (MDA-MB-435): > 100 µM and 27.4 µM
- GI50 (NCI-H522 lung): 14.6 µM
- TGI (NCI-H522 lung): > 100 µM
- GI50 (SF-268 CNS): 60.6 µM and 6.27 µM
- TGI (SF-268 CNS): > 100 µM
- GI50 (UACC-257 melanoma): 70.6 µM and 7.93 µM
- TGI (UACC-257 melanoma): > 100 µM
- GI50 (HL-60(TB) leukemia): > 70.2 µM
- TGI (HL-60(TB) leukemia): > 100 µM
- GI50 (MALME-3M melanoma): 11.7 µM and 2.98 µM
- TGI (MALME-3M melanoma): > 100 µM and 29 µM
- GI50 (MCF7 breast): 7.78 µM and 2.93 µM
- TGI (MCF7 breast): > 100 µM
- GI50 (KM12 colon): 50.8 µM and 24 µM
- TGI (KM12 colon): > 100 µM
- GI50 (RPMI-8226 leukemia): 13.7 µM and 3.16 µM
- TGI (RPMI-8226 leukemia): > 100 µM
- GI50 (LOX IMVI melanoma): 15.6 µM and 6.86 µM
- TGI (LOX IMVI melanoma): > 100 µM
- GI50 (SK-MEL-2 melanoma): > 53.2 µM
- TGI (SK-MEL-2 melanoma): > 100 µM
- GI50 (HOP-92 NSCLC): > 100 µM and 12.2 µM
- TGI (HOP-92 NSCLC): > 100 µM
- GI50 (K-562 leukemia): 26.1 µM and 4.09 µM
- TGI (K-562 leukemia): > 100 µM
- GI50 (UO-31 renal): 32.2 µM and 4.83 µM
- TGI (UO-31 renal): > 100 µM and 30.5 µM
- GI50 (NCI-H226 lung): 32.3 µM and 5.29 µM
- TGI (NCI-H226 lung): > 100 µM and 33.6 µM
- GI50 (786-0 renal): 20.6 µM and 7.98 µM
- TGI (786-0 renal): > 100 µM and 76.6 µM
- GI50 (SF-539 CNS): 18.6 µM and 8.47 µM
- TGI (SF-539 CNS): > 100 µM
- GI50 (NCI/ADR-RES ovarian): 38.4 µM and 5.2 µM
- TGI (NCI/ADR-RES ovarian): > 100 µM
- GI50 (IGROV1 ovarian): 12.3 µM and 4.8 µM
- TGI (IGROV1 ovarian): > 100 µM
- GI50 (SK-MEL-28 melanoma): 14.1 µM and 5.74 µM
- TGI (SK-MEL-28 melanoma): > 100 µM and 61.8 µM
- GI50 (U251 CNS): 42.4 µM and 8.27 µM
- TGI (U251 CNS): > 100 µM
- GI50 (OVCAR-3 ovarian): 23.8 µM and 11.2 µM
- TGI (OVCAR-3 ovarian): > 100 µM and 29.4 µM
- GI50 (HT29 colon): 5.67 µM and 3.09 µM
- TGI (HT29 colon): > 100 µM
- GI50 (SN12C renal): 17.6 µM and 8.78 µM
- TGI (SN12C renal): > 100 µM
- GI50 (HCC-2998 colon): 81 µM and 10.6 µM
- TGI (HCC-2998 colon): > 100 µM and 64.5 µM
- GI50 (DU-145 prostate): 25.9 µM and 12.2 µM
- TGI (DU-145 prostate): > 100 µM
- GI50 (EKVX NSCLC): > 100 µM
- TGI (EKVX NSCLC): > 100 µM
- GI50 (HOP-62 NSCLC): > 95.5 µM and 13.2 µM
- TGI (HOP-62 NSCLC): > 100 µM
- GI50 (MOLT-4 leukemia): 5.9 µM and 3.29 µM
- TGI (MOLT-4 leukemia): > 100 µM
- GI50 (OVCAR-8 ovarian): 14.1 µM and 2.42 µM
- TGI (OVCAR-8 ovarian): > 100 µM
- GI50 (COLO 205 colon): 6.13 µM and 6.32 µM
- TGI (COLO 205 colon): > 100 µM and 21.5 µM
- GI50 (SK-OV-3 ovarian): 98.4 µM and 37.4 µM
- TGI (SK-OV-3 ovarian): > 100 µM
- GI50 (ACHN renal): 4.78 µM and 5.63 µM
- TGI (ACHN renal): > 100 µM and 58.2 µM
- GI50 (PC-3 prostate): > 100 µM and 20.3 µM
- TGI (PC-3 prostate): > 100 µM
- GI50 (OVCAR-5 ovarian): > 52.1 µM and 14.5 µM
- TGI (OVCAR-5 ovarian): > 100 µM
- GI50 (RXF 393 renal): 41.7 µM and 13.6 µM
- TGI (RXF 393 renal): > 100 µM
- GI50 (OVCAR-4 ovarian): > 75.1 µM and 11.2 µM
- TGI (OVCAR-4 ovarian): > 100 µM
- GI50 (A549 NSCLC): 10 µM
- TGI (A549 NSCLC): > 100 µM
